In this test the target is human Autotaxin protein (Homo sapiens, UniProt Q13822). In words: Evaluation of the inhibitory activity against human Autotaxin protein (18:1 LysoPC substrate, choline assay kit, absorbance at 570 nm). Format: biochemical. The following applies: at 500nM compound, 2 hours at 37 °C, read-out: Inhibition rate (%, at 500nM). Here is the method:
Solutions of each synthesized compound (80 uM, 100% dimethyl sulfoxide) were sequentially diluted 5-fold with dimethyl sulfoxide to prepare 6 concentrations. Each concentration of the compound was diluted 2-fold with 1x test buffer (50 mM Tris-Cl (pH 8.0), 5 mM KCl, 1 mM CaCl2, 1 mM MgCl2, 140 mM NaCl, deionized water, 1 mg/mL BSA), and 1 uL (1.25% dimethylsulfoxide) of the diluted mixture was dispensed into each well of a 96-well clear round-bottom plate. 9 uL of 1x test buffer was added, and 20 uL of 240 nM human autotaxin protein (buffer: 50 mM Tris-HCl, pH 8.0, with 150 mM sodium chloride and 20% glycerol) was added. 10 uL of sonicated 360 uM 18:1 LysoPC (diluted with 1x assay buffer) was added. The reaction was performed for 2 hours in a shaking incubator at 37 °C, and a secondary reaction mixture (choline assay kit, KA1662) (65 uL of 1x assay buffer: 1 uL of choline oxidase: 1 uL of dye probe) was prepared. 60 uL of the secondary reaction mixture was added to the plate where the reaction was performed, and incubated for 30 minutes in a shaker. The absorbance value was measured at a wavelength of 570 nm using a SpectraMax iD3 microplate reader. The percentage inhibition activity value (% inhibition) was calculated by the formula: (1 - absorbance value test group / absorbance value control group) X 100.
Take `FC(F)(F)c1ccc(CCNc2ncc(-c3nnc(N4C[C@@H]5[C@H](C4)[C@H]5c4cnn[nH]4)o3)cn2)cc1` [Example 26, 5-(5-((1R,5S,6r)-6-(1H-1,2,3-Triazol-5-yl)-3-azabicyclo[3.1.0]hexan-3-yl)-1,3,4-oxadiazol-2-yl)-N-(4-(trifluoromethyl)phenethyl)pyrimidin-2-amine]: the inhibition at 0.5 µM amounted to 98.4%.

`Fc1ccc(CNc2ncc(-c3nnc(N4C[C@@H]5[C@H](C4)[C@H]5c4cnn[nH]4)o3)cn2)cc1F` [Example 4, 5-(5-((1R,5S,6r)-6-(1H-1,2,3-Triazol-5-yl)-3-azabicyclo[3.1.0]hexan-3-yl)-1,3,4-oxadiazol-2-yl)-N-(3,4-difluorobenzyl)pyrimidin-2-amine]: the inhibition at 0.5 µM is 81.5%.

As for `Fc1ccc(CCNc2ncc(-c3nnc(N4C[C@@H]5[C@H](C4)[C@H]5c4cnn[nH]4)o3)cn2)cc1` [Example 13, 5-(5-((1R,5S,6r)-6-(1H-1,2,3-Triazol-5-yl)-3-azabicyclo[3.1.0]hexan-3-yl)-1,3,4-oxadiazol-2-yl)-N-(4-fluorophenethyl)pyrimidin-2-amine], the inhibition at 0.5 µM amounted to 86%.

Regarding `Cn1nncc1[C@H]1[C@@H]2CN(c3nnc(-c4cnc(NCCc5ccc(Cl)cc5)nc4)o3)C[C@@H]21` [Example 47, N-(4-Chlorophenethyl)-5-(5-((1R,5S,6r)-6-(1-methyl-1H-1,2,3-triazol-5-yl)-3-azabicyclo[3.1.0]hexan-3-yl)-1,3,4-oxadiazol-2-yl)pyrimidin-2-amine], the inhibition at 0.5 µM was 13.9%.

Take `c1cc2c(cc1CNc1ncc(-c3nnc(N4C[C@@H]5[C@H](C4)[C@H]5c4cnn[nH]4)o3)cn1)OCO2` [Example 9, 5-(5-((1R,5S,6r)-6-(1H-1,2,3-Triazol-5-yl)-3-azabicyclo[3.1.0]hexan-3-yl)-1,3,4-oxadiazol-2-yl)-N-(benzo[d][1,3]dioxol-5-ylmethyl)pyrimidin-2-amine]: the inhibition at 0.5 µM is 40.6%.

For the molecule `O=C(/C=C/c1cnc(NCCc2ccc(Cl)cc2)nc1)N1C[C@@H]2[C@H](C1)[C@H]2c1cnn[nH]1` [Example 45, (E)-1-((1R,5S,6r)-6-(1H-1,2,3-Triazol-5-yl)-3-azabicyclo[3.1.0]hexan-3-yl)-3-(2-((4-chlorophenethyl)amino)pyrimidin-5-yl)prop-2-en-1-one], the inhibition at 0.5 µM came out at 98.7%.

On to `N#Cc1cccc(CNc2ncc(-c3nnc(N4C[C@@H]5[C@H](C4)[C@H]5c4cnn[nH]4)o3)cn2)c1` [Example 25, 3-(((5-(5-((1R,5S,6r)-6-(1H-1,2,3-Triazol-5-yl)-3-azabicyclo[3.1.0]hexan-3-yl)-1,3,4-oxadiazol-2-yl)pyrimidin-2-yl)amino)methyl)benzonitrile], for which the inhibition at 0.5 µM is 95.2%.

Turning to `N#Cc1ccc(CCNc2ncc(-c3nnc(N4C[C@@H]5[C@H](C4)[C@H]5c4cnn[nH]4)o3)cn2)cc1` [Example 33, 4-(2-((5-(5-((1R,5S,6r)-6-(1H-1,2,3-Triazol-5-yl)-3-azabicyclo[3.1.0]hexan-3-yl)-1,3,4-oxadiazol-2-yl)pyrimidin-2-yl)amino)ethyl)benzonitrile], the inhibition at 0.5 µM was 93.7%.

On to `Cc1nc(NCCc2ccc(Cl)cc2)ncc1-c1nnc(N2C[C@@H]3[C@H](C2)[C@H]3c2cnn[nH]2)o1` [Example 40, 5-(5-((1R,5S,6r)-6-(1H-1,2,3-Triazol-5-yl)-3-azabicyclo[3.1.0]hexan-3-yl)-1,3,4-oxadiazol-2-yl)-N-(4-chlorophenethyl)-4-methylpyrimidin-2-amine], for which the inhibition at 0.5 µM was found to be 92.3%.

As for `c1ccc2c(c1)CC(Nc1ncc(C3CC(N4C[C@@H]5[C@H](C4)[C@H]5c4cnn[nH]4)=NO3)cn1)C2` (stereo partly drawn) [Example 50, 5-(3-((1R,5S,6r)-6-(1H-1,2,3-Triazol-5-yl)-3-azabicyclo[3.1.0]hexan-3-yl)-4,5-dihydroisoxazol-5-yl)-N-(2,3-dihydro-1H-inden-2-yl)pyrimidin-2-amine], the inhibition at 0.5 µM was 95.5%.

With `c1ccc2c(c1)CC[C@H]2Nc1ncc(-c2nnc(N3C[C@@H]4[C@H](C3)[C@H]4c3cnn[nH]3)o2)cn1` [Example 34, 5-(5-((1R,5S,6R)-6-(1H-1,2,3-Triazol-5-yl)-3-azabicyclo[3.1.0]hexan-3-yl)-1,3,4-oxadiazol-2-yl)-N-((R)-2,3-dihydro-1H-inden-1-yl)pyrimidin-2-amine], the inhibition at 0.5 µM was 90.8%.

With `FC(F)(F)c1ccc(CNc2ncc(-c3nnc(N4C[C@@H]5[C@H](C4)[C@H]5c4cnn[nH]4)o3)cn2)cc1` [Example 20, 5-(5-((1R,5S,6r)-6-(1H-1,2,3-Triazol-5-yl)-3-azabicyclo[3.1.0]hexan-3-yl)-1,3,4-oxadiazol-2-yl)-N-(4-(trifluoromethyl)benzyl)pyrimidin-2-amine], the inhibition at 0.5 µM was found to be 88.5%.

In the case of `O=C(/C=C/c1cnc(NC2Cc3ccccc3C2)nc1)N1C[C@@H]2[C@H](C1)[C@H]2c1cnn[nH]1` [Example 46, (E)-1-((1R,5S,6r)-6-(1H-1,2,3-Triazol-5-yl)-3-azabicyclo[3.1.0]hexan-3-yl)-3-(2-((2,3-dihydro-1H-inden-2-yl)amino)pyrimidin-5-yl)prop-2-en-1-one], the inhibition at 0.5 µM was 99.4%.

As for `FC(F)c1ccc(CNc2ncc(-c3nnc(N4C[C@@H]5[C@H](C4)[C@H]5c4cnn[nH]4)o3)cn2)cc1` [Example 23, 5-(5-((1R,5S,6r)-6-(1H-1,2,3-Triazol-5-yl)-3-azabicyclo[3.1.0]hexan-3-yl)-1,3,4-oxadiazol-2-yl)-N-(4-(difluoromethyl)benzyl)pyrimidin-2-amine], the inhibition at 0.5 µM was found to be 82.2%.

For the molecule `Clc1ccc(CCNc2ncc(C3CC(N4C[C@@H]5[C@H](C4)[C@H]5c4cnn[nH]4)=NO3)cn2)cc1` (stereo partly drawn) [Example 49, 5-(3-((1R,5S,6r)-6-(1H-1,2,3-Triazol-5-yl)-3-azabicyclo[3.1.0]hexan-3-yl)-4,5-dihydroisoxazol-5-yl)-N-(4-chlorophenethyl)pyrimidin-2-amine], the inhibition at 0.5 µM was determined as 76.4%.

Regarding `c1ccc(Nc2ncc(-c3nnc(N4C[C@@H]5[C@H](C4)[C@H]5c4cnn[nH]4)o3)cn2)cc1` [Example 36, 5-(5-((1R,5S,6r)-6-(1H-1,2,3-Triazol-5-yl)-3-azabicyclo[3.1.0]hexan-3-yl)-1,3,4-oxadiazol-2-yl)-N-phenylpyrimidin-2-amine], the inhibition at 0.5 µM stood at 65.2%.

As to `Clc1ccc(CCNc2ccc(-c3nnc(N4C[C@@H]5[C@H](C4)[C@H]5c4cnn[nH]4)o3)cn2)cc1` [Example 41, 5-(5-((1R,5S,6r)-6-(1H-1,2,3-Triazol-5-yl)-3-azabicyclo[3.1.0]hexan-3-yl)-1,3,4-oxadiazol-2-yl)-N-(4-chlorophenethyl)pyridin-2-amine], the inhibition at 0.5 µM amounted to 95.8%.

`c1ccc2c(c1)CC(Nc1ncc(-c3nnc(N4C[C@@H]5[C@H](C4)[C@H]5c4cnn[nH]4)o3)cn1)C2` [Example 16, 5-(5-((1R,5S,6r)-6-(1H-1,2,3-Triazol-5-yl)-3-azabicyclo[3.1.0]hexan-3-yl)-1,3,4-oxadiazol-2-yl)-N-(2,3-dihydro-1H-inden-2-yl)pyrimidin-2-amine]: the inhibition at 0.5 µM came to 98.6%.

`Cc1ccc(CCNc2ncc(-c3nnc(N4C[C@@H]5[C@H](C4)[C@H]5c4cnn[nH]4)o3)cn2)cc1` [Example 31, 5-(5-((1R,5S,6r)-6-(1H-1,2,3-Triazol-5-yl)-3-azabicyclo[3.1.0]hexan-3-yl)-1,3,4-oxadiazol-2-yl)-N-(4-methylphenethyl)pyrimidin-2-amine]: the inhibition at 0.5 µM was 97%.

As to `c1ccc(CCNc2ncc(-c3nnc(N4C[C@@H]5[C@H](C4)[C@H]5c4cnn[nH]4)o3)cn2)cc1` [Example 11, 5-(5-((1R,5S,6r)-6-(1H-1,2,3-Triazol-5-yl)-3-azabicyclo[3.1.0]hexan-3-yl)-1,3,4-oxadiazol-2-yl)-N-phenethylpyrimidin-2-amine], the inhibition at 0.5 µM was 85.3%.

With `Clc1ccccc1CCNc1ncc(-c2nnc(N3C[C@@H]4[C@H](C3)[C@H]4c3cnn[nH]3)o2)cn1` [Example 28, 5-(5-((1R,5S,6r)-6-(1H-1,2,3-Triazol-5-yl)-3-azabicyclo[3.1.0]hexan-3-yl)-1,3,4-oxadiazol-2-yl)-N-(2-chlorophenethyl)pyrimidin-2-amine], the inhibition at 0.5 µM is 96.4%.

For `Clc1ccc(CNc2ncc(-c3nnc(N4C[C@@H]5[C@H](C4)[C@H]5c4cnn[nH]4)o3)cn2)cc1Cl` [Example 6, 5-(5-((1R,5S,6r)-6-(1H-1,2,3-Triazol-5-yl)-3-azabicyclo[3.1.0]hexan-3-yl)-1,3,4-oxadiazol-2-yl)-N-(3,4-dichlorobenzyl)pyrimidin-2-amine], the inhibition at 0.5 µM was determined as 68.9%.

With `c1ccc(CNc2ncc(-c3nnc(N4C[C@@H]5[C@H](C4)[C@H]5c4cnn[nH]4)o3)cn2)cc1` [Example 1, 5-(5-((1R,5S,6r)-6-(1H-1,2,3-Triazol-5-yl)-3-azabicyclo[3.1.0]hexan-3-yl)-1,3,4-oxadiazol-2-yl)-N-benzylpyrimidin-2-amine], the inhibition at 0.5 µM came to 63.6%.

With `Clc1ccc(CCNc2cnc(-c3nnc(N4C[C@@H]5[C@H](C4)[C@H]5c4cnn[nH]4)o3)cn2)cc1` [Example 42, 5-(5-((1R,5S,6r)-6-(1H-1,2,3-Triazol-5-yl)-3-azabicyclo[3.1.0]hexan-3-yl)-1,3,4-oxadiazol-2-yl)-N-(4-chlorophenethyl)pyrazin-2-amine], the inhibition at 0.5 µM came to 68.4%.

For the origin of these results see patent EP4692083A1, “NOVEL AZABICYCLE DERIVATIVES AND PHARMACEUTICAL COMPOSITION FOR INHIBITING AUTOTAXIN, COMPRISING SAME” (Nextgen Bioscience Co., Ltd., priority 2023, dated 2024).
